This is an account of results in ChEMBL document CHEMBL5120862, “Novel non-covalent LSD1 inhibitors endowed with anticancer effects in leukemia and solid tumor cellular models” (Eur J Med Chem, 2022).

Data set [1] has as its system MV4-11. The data set is described as follows: Antiproliferative activity against human MV4-11 cells assessed as inhibition of cell growth at 0.2 to […] incubated for 72 hrs by trypan blue staining based analysis. As to conditions: dose 0.2-2.5 µM. In kind it is functional.
In data set [2] the target is Lysine-specific histone demethylase 1A (Homo sapiens) (UniProt O60341). The data set is described as follows: Inhibition of LSD1 in human MV4-11 cells assessed as increase in H3K4me2 level at 0.2 to […] incubated for 24 hrs by Western blot analysis. As to conditions: dose 0.2-2.5 µM. In kind it is cell-based. (In western blotting, separated proteins are transferred to a membrane and probed.)

Data set [3] concerns THP-1. The data set is described as follows: Antiproliferative activity against human THP-1 cells assessed as inhibition of cell growth incubated for 144 hrs by CellTiter-Glo luminescent cell viability assay. Type of data set: functional, cell-based. As to conditions: THP-1, 144 h.
Data set [4] deals with MV4-11. The data set is described as follows: Antiproliferative activity against human MV4-11 cells assessed as inhibition of cell growth at 1 uM incubated for 144 hrs by trypan blue staining based analysis. Type of data set: functional.
Data set [5] can be described thus: Cytotoxicity against human AHH-1 cells assessed as residual cell viability at 1 uM measured after 72 hrs by MTT assay relative to control. Type of data set: toxicity, cell-based. As to conditions: read-out: Activity. For orientation: Formazan colour is commonly taken as a measure of viable cells.
A further data set has as its system SJRH30. The data set can be described thus: Antiproliferative activity against human Rh30 cells assessed as inhibition of cell growth incubated for 144 hrs. In kind it is functional, cell-based. As to conditions: SJRH30, 144 h.
The subject of data set [6] is THP-1. The data set is described as follows: Antiproliferative activity against human THP-1 cells assessed as inhibition of cell growth incubated for 24 hrs by CellTiter-Glo luminescent cell viability assay. Type of data set: functional, cell-based. To be noted: THP-1, 24 h. A general note: Cellular ATP, detected with luciferase, serves as a proxy for viable cell number.

A short description of data set [7]: Cytotoxicity against HMEC cells assessed as residual cell viability at 0.5 uM incubated for 72 hrs by MTT assay relative to control. Type of data set: toxicity, cell-based. As to conditions: human, read-out: Activity.
For data set [8], the system named is MV4-11. The data set is described as follows: Induction of apoptosis in human MV4-11 cells assessed as accumulation of cells at sub-G1 phase incubated for 24 hrs. In kind it is functional, cell-based. To be noted: dose 0.2-25 µM, DDE = dose-dependent effect.
A further data set concerns RD. The data set can be described thus: Antiproliferative activity against human RD cells assessed as reduction in live cells at 2 uM incubated for 72 hrs by calceinAM/propidium iodide staining based fluorescence microscopy. In kind it is functional, cell-based.
The test system of data set [9] is MV4-11. The data set is described as follows: Induction of cell cycle arrest in human MV4-11 cells assessed as accumulation of cells at G1 phase at 0.2 to […] incubated for 24 hrs. As to conditions: dose 0.2-2.5 µM. In kind it is functional, cell-based.
For data set [10], the target named is T1, MAO-B (amine oxidase [flavin-containing] B) (Homo sapiens, UniProt P27338).
T1 sequence (P27338 whole entry): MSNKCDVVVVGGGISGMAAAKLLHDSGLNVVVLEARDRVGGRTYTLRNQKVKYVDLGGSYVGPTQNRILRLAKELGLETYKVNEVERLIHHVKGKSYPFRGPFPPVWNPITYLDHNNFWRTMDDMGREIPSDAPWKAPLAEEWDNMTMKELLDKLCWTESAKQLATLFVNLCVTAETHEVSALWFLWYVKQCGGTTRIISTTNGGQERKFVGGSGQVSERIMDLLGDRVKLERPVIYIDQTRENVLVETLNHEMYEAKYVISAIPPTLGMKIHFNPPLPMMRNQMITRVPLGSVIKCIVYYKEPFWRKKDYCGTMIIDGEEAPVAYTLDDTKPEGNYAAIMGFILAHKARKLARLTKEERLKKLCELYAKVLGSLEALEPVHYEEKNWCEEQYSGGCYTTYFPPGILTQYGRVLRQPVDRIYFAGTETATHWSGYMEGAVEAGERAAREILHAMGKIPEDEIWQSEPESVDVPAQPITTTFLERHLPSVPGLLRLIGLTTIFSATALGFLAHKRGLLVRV
The data set can be described thus: Inhibition of human MAO-B using p-tyramine as substrate at 100 uM by fluorimetric analysis relative to control. To be noted: human MAO-B enzyme, probe p-tyramine.

Data set [11] deals with Lysine-specific histone demethylase 1A (Homo sapiens) (UniProt O60341). The data set can be described thus: Inhibition of LSD1 in human RD cells assessed as increase in H3K4me2 level at 1 uM incubated for 48 hrs by Western blot analysis. In kind it is cell-based.

Structures are written as SMILES. pIC50: −log10 of the molar value. The source made the active and inactive calls. The rule behind the calls is not given here.

The inhibition is the percentage by which the read-out fell short of the control. The term pIC50 denotes −log10 of the IC50, conventionally taken in molar units. Consider `COc1cc2c(NC3CCN(Cc4ccccc4)CC3)nc(NCCCN(C)C)nc2cc1OCc1ccccc1`, for which the inhibition result (in the data set with MV4-11 [1]; in data set [2]; in the data set with MV4-11 [4]; in data set [11]) was “Active” in each case. In addition, the figures for the pIC50 in the data set on THP-1 [3], in the data set with SJRH30 and with THP-1 [6] were 6.89, 6.17 and 6.57, respectively. For the same compound, in data set [5], the viability at 72 h, 1 µM is 90%. Also, the viability at 72 h, 0.5 µM in [7] worked out at 93%. Besides, the Activity result in the data set with MV4-11 [8] is “Dde”. The outcome with RD and in the data set with MV4-11 [9] was Active. Moreover, 100 µM produced 0.5% inhibition in [10].
